From US8106055B2, “Substituted amide compounds” (Gruenenthal GmbH, priority 2007, dated 2012)

Experiments:
[1] = biological target: T1, human bradykinin 1 receptor (B1R) (Homo sapiens, UniProt P46663); test: Functional investigation on the human bradykinin 1 receptor (B1R), Ca2+ FLIPR assay in CHO K1 hB1R cells; type: cell-based; conditions: CHO-K1, B1R antagonism human; test substance 10 μM; Ca2+ FLIPR, CHO K1 hB1R cells; read-out: B1R Ant. h [10 μM] % Inhibition
T1 construct: expressed in transfected cells; host or cells: CHO K1 cells
T1 sequence (P46663 1-353): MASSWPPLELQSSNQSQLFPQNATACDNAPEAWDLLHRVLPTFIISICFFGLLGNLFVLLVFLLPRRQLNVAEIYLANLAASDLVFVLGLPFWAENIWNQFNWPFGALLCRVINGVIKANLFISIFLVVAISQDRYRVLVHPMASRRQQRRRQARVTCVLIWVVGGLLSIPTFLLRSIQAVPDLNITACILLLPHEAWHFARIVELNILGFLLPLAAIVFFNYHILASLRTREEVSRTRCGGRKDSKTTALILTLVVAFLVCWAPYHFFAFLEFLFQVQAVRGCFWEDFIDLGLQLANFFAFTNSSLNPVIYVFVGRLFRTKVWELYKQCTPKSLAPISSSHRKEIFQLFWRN
Procedure, shortened: (§1)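 Fluo-4 Ca2+ readout, peak fluorescence. Stable CHO K1 transfectants; compound pre-incubated 10-20 min, then EC80 agonist—Lys-Des-Arg9-BK for hB1R, Des-Arg9-BK for rB1R. % inhibition vs maximal inhibition; IC50 from multiple concentrations, duplicate/triplicate, ≥2 independent runs.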

[2] = biological target: T2, bradykinin 1 receptor (B1R) of the rat (Rattus norvegicus, UniProt P97583); test: Functional investigation on the rat bradykinin 1 receptor (B1R), Ca2+ FLIPR assay in CHO K1 rB1R cells; type: cell-based; conditions: CHO-K1, B1R antagonism rat; test substance 10 μM; Ca2+ FLIPR, CHO K1 rB1R cells; read-out: B1R Ant. r [10 μM] % Inhibition
T2 construct: expressed in transfected cells; host or cells: CHO K1 cells
T2 sequence (P97583 1-337): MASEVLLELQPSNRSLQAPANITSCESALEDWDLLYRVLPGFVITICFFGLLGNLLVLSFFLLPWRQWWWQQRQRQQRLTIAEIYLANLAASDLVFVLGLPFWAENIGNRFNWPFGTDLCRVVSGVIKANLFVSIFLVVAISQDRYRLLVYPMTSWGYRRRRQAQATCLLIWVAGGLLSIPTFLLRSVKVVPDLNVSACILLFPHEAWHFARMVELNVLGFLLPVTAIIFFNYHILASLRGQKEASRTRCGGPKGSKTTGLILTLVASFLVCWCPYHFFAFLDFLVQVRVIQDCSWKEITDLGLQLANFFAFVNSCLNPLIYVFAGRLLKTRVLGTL
Procedure, shortened: as §1

**Q.** For `CN(C)C(c1cccs1)C1CCC(CCNC(=O)COCCN(C)S(=O)(=O)c2ccc(Cl)cc2Cl)CC1` (stereo not shown) [Example 9, 2-(2-(2,4-dichloro-N-methylphenylsulfonamido)ethoxy)-N-(2-(4-((dimethylamino) (thiophen-2-yl)methyl)cyclohexyl)ethyl)acetamide], which inhibition at 10 µM [1] is on record?
**A.** 97%

**Q.** What about the inhibition at 10 µM [2] of the same molecule?
**A.** 43%

**Q.** `CN(C)C(c1cccs1)C1CCC(NC(=O)COCCN(C)S(=O)(=O)c2ccc(F)cc2)CC1` (stereo not shown) [Example 10, N-(4-((dimethylamino)(thiophen-2-yl)methyl)cyclohexyl)-2-(2-(4-fluoro-N-methylphenylsulfonamido)ethoxy)acetamide] was tested. Which inhibition at 10 µM [1] did it give?
**A.** -17%

**Q.** What about the inhibition at 10 µM [2] of the same molecule?
**A.** 9%

**Q.** How did the inhibition at 10 µM [1] turn out when `CN(C)C(c1cccs1)C1CCC(NC(=O)COC2CCN(S(=O)(=O)c3cccc(C(F)(F)F)c3)C2)CC1` (stereo not shown) [Example 11, N-(4-((dimethylamino)(thiophen-2-yl)methyl)cyclohexyl)-2-(1-(3-(trifluoromethyl)phenylsulfonyl)pyrrolidin-3-yloxy)acetamide] was run?
**A.** -16%

**Q.** What about the inhibition at 10 µM [2] of the same molecule?
**A.** 36%

**Q.** For `Cc1cc(C)c(S(=O)(=O)N2CCC(OCC(=O)NC3CCC(C(c4cccs4)N(C)C)CC3)C2)c(C)c1` (stereo not shown) [Example 12, N-(4-((dimethylamino)(thiophen-2-yl)methyl)cyclohexyl)-2-(1-(mesitylsulfonyl)pyrrolidin-3-yloxy)acetamide], which inhibition at 10 µM [1] is on record?
**A.** 41%

**Q.** What about the inhibition at 10 µM [2] of the same molecule?
**A.** 30%

**Q.** What does the source list for `CN(C)C(c1ccccc1)C1CCC(CNC(=O)COCCN(C)S(=O)(=O)c2c(Cl)cccc2Cl)CC1` (stereo not shown) [Example 13, 2-(2-(2,6-dichloro-N-methylphenylsulfonamido)ethoxy)-N-((4-((dimethylamino)(phenyl)methyl)cyclohexyl)methyl)acetamide]?
**A.** inhibition at 10 µM [1]: 99%; inhibition at 10 µM [2]: 44%

**Q.** For `CN(C)C(c1ccccc1)C1CCC(CNC(=O)COCCN(C)S(=O)(=O)c2c(Cl)cc(Cl)cc2Cl)CC1` (stereo not shown) [Example 14, N-((4-((dimethylamino)(phenyl)methyl)cyclohexyl)methyl)-2-(2-(2,4,6-trichloro-N-methylphenylsulfonamido)ethoxy)acetamide], which inhibition at 10 µM [1] is on record?
**A.** 104%

**Q.** And the inhibition at 10 µM [2]?
**A.** 40%

**Q.** `CN(C)C(c1ccccc1)C1CCC(CNC(=O)COCCN(Cc2ccccc2)S(=O)(=O)c2ccccc2)CC1` (stereo not shown) [Example 15, 2-(2-(N-benzylphenylsulfonamido)ethoxy)-N-((4-((dimethylamino)(phenyl)methyl)cyclohexyl)methyl)acetamide] was tested. Which inhibition at 10 µM [1] did it give?
**A.** 11%

**Q.** And the inhibition at 10 µM [2]?
**A.** -18%

**Q.** With `CCN(CCOCC(=O)NCC1CCC(C(c2cccs2)N(C)C)CC1)S(=O)(=O)c1c(C)cc(OC)c(C)c1C` (stereo not shown) [Example 16, N-((4-((dimethylamino)(thiophen-2-yl)methyl)cyclohexyl)methyl)-2-(2-(N-ethyl-4-methoxy-2,3,6-trimethylphenylsulfonamido)ethoxy)acetamide] as the molecule, how does the inhibition at 10 µM [1] read?
**A.** 86%

**Q.** And the inhibition at 10 µM [2]?
**A.** 59%

**Q.** How did the inhibition at 10 µM [1] turn out when `CN(C)C(c1ccccc1)C1CCC(CNC(=O)COCC2CCCCN2S(=O)(=O)c2ccc(Cl)c(Cl)c2)CC1` (stereo not shown) [Example 17, 2-((1-(3,4-dichlorophenylsulfonyl)piperidin-2-yl)methoxy)-N-((4-((dimethylamino)(phenyl)methyl)cyclohexyl)methyl)acetamide] was run?
**A.** 81%

**Q.** And the inhibition at 10 µM [2]?
**A.** 22%

**Q.** Which inhibition at 10 µM [1] does the source give for `CN(C)C(c1ccccc1)C1CCC(CNC(=O)COCC2CCCN2S(=O)(=O)c2ccc(Cl)c(Cl)c2)CC1` (stereo not shown) [Example 18, 2-((1-(3,4-dichlorophenylsulfonyl)pyrrolidin-2-yl)methoxy)-N-((4-((dimethylamino)(phenyl)methyl)cyclohexyl)methyl)acetamide] here?
**A.** 62%

**Q.** And the inhibition at 10 µM [2]?
**A.** 11%

**Q.** With `COc1ccc(S(=O)(=O)N2Cc3ccccc3CC2COCC(=O)NCC2CCC(C(c3ccccc3)N(C)C)CC2)cc1` (stereo not shown) [Example 19, N-((4-((dimethylamino)(phenyl)methyl)cyclohexyl)methyl)-2-((2-(4-methoxyphenylsulfonyl)-1,2,3,4-tetrahydroisoquinolin-3-yl)methoxy)acetamide] as the molecule, how does the inhibition at 10 µM [1] read?
**A.** 63%

**Q.** And the inhibition at 10 µM [2]?
**A.** 4%

**Q.** For `COc1cc(C)c(S(=O)(=O)N2CCN(CCOCC(=O)NC3CCC(C(c4ccccc4)N(C)C)CC3)CC2)c(C)c1C` (stereo not shown) [Example 20, N-(4-((dimethylamino)(phenyl)methyl)cyclohexyl)-2-(2-(4-(4-methoxy-2,3,6-trimethylphenylsulfonyl)piperazin-1-yl)ethoxy)acetamide], which inhibition at 10 µM [1] is on record?
**A.** 101%

**Q.** What about the inhibition at 10 µM [2] of the same molecule?
**A.** -9%

**Q.** What does the source list for `CN(C)C(c1cccs1)C1CCC(CCNC(=O)COC2CCN(S(=O)(=O)c3ccc(Cl)cc3Cl)C2)CC1` (stereo not shown) [Example 21, 2-(1-(2,4-dichlorophenylsulfonyl)pyrrolidin-3-yloxy)-N-(2-(4-((dimethylamino)(thiophen-2-yl)methyl)cyclohexyl)ethyl)acetamide]?
**A.** inhibition at 10 µM [1]: 88%; inhibition at 10 µM [2]: 50%

**Q.** Which inhibition at 10 µM [1] does the source give for `COc1ccc(S(=O)(=O)N2CCC(OCC(=O)NCC3CCC(C(c4ccccc4)N(C)C)CC3)C2)cc1OC` (stereo not shown) [Example 22, 2-(1-(3,4-dimethoxyphenylsulfonyl)pyrrolidin-3-yloxy)-N-((4-((dimethylamino)(phenyl)methyl)cyclohexyl)methyl)acetamide] here?
**A.** 0%

**Q.** And the inhibition at 10 µM [2]?
**A.** 26%

**Q.** How did the inhibition at 10 µM [1] turn out when `COc1ccc(S(=O)(=O)N2CCC(OCC(=O)NCC3CCC(C(c4cccs4)N(C)C)CC3)C2)cc1OC` (stereo not shown) [Example 23, 2-(1-(3,4-dimethoxyphenylsulfonyl)pyrrolidin-3-yloxy)-N-((4-((dimethylamino)(thiophen-2-yl)methyl)cyclohexyl)methyl)acetamide] was run?
**A.** -25%

**Q.** And the inhibition at 10 µM [2]?
**A.** 7%

**Q.** With `CN(C)C(c1cccs1)C1CCC(CNC(=O)COC2CCN(S(=O)(=O)c3cccc(C(F)(F)F)c3)C2)CC1` (stereo not shown) [Example 25, N-((4-((dimethylamino)(thiophen-2-yl)methyl)cyclohexyl)methyl)-2-(1-(3-(trifluoromethyl)phenylsulfonyl)pyrrolidin-3-yloxy)acetamide] as the molecule, how does the inhibition at 10 µM [1] read?
**A.** -6%

**Q.** And the inhibition at 10 µM [2]?
**A.** 30%

**Q.** With `Cc1cc(C)c(S(=O)(=O)N2CCC(OCC(=O)NCC3CCC(C(c4ccccc4)N(C)C)CC3)C2)c(C)c1` (stereo not shown) [Example 26, N-((4-((dimethylamino)(phenyl)methyl)cyclohexyl)methyl)-2-(1-(mesitylsulfonyl)pyrrolidin-3-yloxy)acetamide] as the molecule, how does the inhibition at 10 µM [1] read?
**A.** 51%

**Q.** And the inhibition at 10 µM [2]?
**A.** 38%

**Q.** Which results are given for `Cc1cc(C)c(S(=O)(=O)N2CCC(OCC(=O)NCC3CCC(C(c4cccs4)N(C)C)CC3)C2)c(C)c1` (stereo not shown) [Example 27, N-((4-((dimethylamino)(thiophen-2-yl)methyl)cyclohexyl)methyl)-2-(1-(mesitylsulfonyl)pyrrolidin-3-yloxy)acetamide]?
**A.** inhibition at 10 µM [1]: 60%; inhibition at 10 µM [2]: 60%

**Q.** What does the source list for `CN(C)C(c1cccs1)C1CCC(NC(=O)COC2CCN(S(=O)(=O)c3ccc(F)cc3)C2)CC1` (stereo not shown) [Example 28, N-(4-((dimethylamino)(thiophen-2-yl)methyl)cyclohexyl)-2-(1-(4-fluorophenylsulfonyl)pyrrolidin-3-yloxy)acetamide]?
**A.** inhibition at 10 µM [1]: -7%; inhibition at 10 µM [2]: 17%

**Q.** What does the source list for `COc1cc(C)c(S(=O)(=O)N2CCCC(OCC(=O)NCC3CCC(C(c4ccccc4)N(C)C)CC3)C2)c(C)c1C` (stereo not shown) [Example 29, N-((4-((dimethylamino)(phenyl)methyl)cyclohexyl)methyl)-2-(1-(4-methoxy-2,3,6-trimethylphenylsulfonyl)piperidin-3-yloxy)acetamide]?
**A.** inhibition at 10 µM [1]: 35%; inhibition at 10 µM [2]: 17%

**Q.** Which results are given for `COc1ccc(S(=O)(=O)N2CCCCC2COCC(=O)NCCC2CCC(C(c3cccs3)N(C)C)CC2)cc1` (stereo not shown) [Example 30, N-(2-(4-((dimethylamino)(thiophen-2-yl)methyl)cyclohexyl)ethyl)-2-((1-(4-methoxyphenylsulfonyl)piperidin-2-yl)methoxy)acetamide]?
**A.** inhibition at 10 µM [1]: 81%; inhibition at 10 µM [2]: 72%

**Q.** For `CN(C)C(c1cccs1)C1CCC(CNC(=O)COC2CCCCC2N(C)S(=O)(=O)c2ccc(Cl)c(Cl)c2)CC1` (stereo not shown) [Example 31, 2-(2-(3,4-dichloro-N-methylphenylsulfonamido)cyclohexyloxy)-N-((4-((dimethylamino)(thiophen-2-yl)methyl)cyclohexyl)methyl)acetamide], which inhibition at 10 µM [1] is on record?
**A.** 10%

**Q.** And the inhibition at 10 µM [2]?
**A.** 11%

**Q.** With `CN(C)C(c1cccs1)C1CCC(CCNC(=O)COCCN(C)S(=O)(=O)c2cccc(C(F)(F)F)c2)CC1` (stereo not shown) [Example 32, N-(2-(4-((dimethylamino)(thiophen-2-yl)methyl)cyclohexyl)ethyl)-2-(2-(N-methyl-3-(trifluoromethyl)phenylsulfonamido)ethoxy)acetamide] as the molecule, how does the inhibition at 10 µM [1] read?
**A.** 32%

**Q.** And the inhibition at 10 µM [2]?
**A.** 14%
